Assays:
Format in all cases: in vivo
Sorghum = assay: Pre-emergent herbicidal test, Sorghum; settings: Table II; note: ranges in brackets are in %
Source text: (§1) A good grade of top soil is placed in aluminum pans and compacted to a depth of three-eights to one-half inch from the top of the pan. On the top of the soil is placed a number of seeds or vegetative propagules of various plant species. The soil required to level fill the pans after seeding or adding vegetative propagules is weighted into a pan. The soil and a known amount of the active ingredient applied in a solvent or as a wettable powder suspension are thoroughly mixed, and used to cover the prepared pans. After treatment, the pans are moved into a greenhouse bench where they are watered by subirrigation as needed to give adequate moisture for germination and growth.
(§2) Approximately 2 weeks after seeding and treating, the plants were observed and the results recorded. The herbicidal rating was obtained by means of a fixed scale based on the percent injury of each plant species. The ratings are defined as follows: […]
(§3) The compounds were further tested by utilizing the above procedure on the following plant species: […]

Wild Buckwheat = assay: Pre-emergent herbicidal test, Wild Buckwheat; settings: Table II; note: ranges in brackets are in %
Source text: as §1, §2, §3

Sugarbeet = assay: Pre-emergent herbicidal test, Sugarbeet; settings: Table II; note: ranges in brackets are in %
Source text: as §1, §2, §3

Johnsongrass = assay: Pre-emergent herbicidal test, Johnsongrass; settings: Table I; note: ranges in brackets are in %
Source text: as §1, §2

Soybean = assay: Pre-emergent herbicidal test, Soybean; settings: Table II; note: ranges in brackets are in %
Source text: as §1, §2, §3

Barnyardgrass = assay: Pre-emergent herbicidal test, Barnyardgrass; note: ranges in brackets are in %
Source text: as §1, §2

Panicum Spp. = assay: Pre-emergent herbicidal test, Panicum Spp.; note: ranges in brackets are in %; settings: Table II
Source text: as §1, §2, §3

Lambsquarters = assay: Pre-emergent herbicidal test, Lambsquarters; note: ranges in brackets are in %
Source text: as §1, §2

Cocklebur = assay: Pre-emergent herbicidal test, Cocklebur; settings: Table II; note: ranges in brackets are in %
Source text: as §1, §2

Yellow Nutsedge = assay: Pre-emergent herbicidal test, Yellow Nutsedge; settings: Table I; note: ranges in brackets are in %
Source text: as §1, §2

Morningglory = assay: Pre-emergent herbicidal test, Morningglory; note: ranges in brackets are in %
Source text: as §1, §2

Smartweed = assay: Pre-emergent herbicidal test, Smartweed; note: ranges in brackets are in %
Source text: as §1, §2

direct-seeded rice = assay: Field tests in direct-seeded rice; settings: less tolerant than transplant rice
Source text: The herbicides of this invention may be used singly, as mixtures with other herbicides and may be used in sequential use with other herbicides. For example, treatments of a transplant rice crop with the herbicides of this invention may be followed with treatments of other herbicides or mixtures such as S-4-chlorobenzyl diethylthiocarbamate (common name "benthiocarb") plus 2-chloro-4,6-di(ethylamino)-1,3,5-triazine (common name "simazine") or 3-isopropyl-(1H)-benzo-2,1,3-thiadiazine-4-one-2,2-dioxide (common name "bentazone") or 4-(4-chloro-2-methylphenoxy)butyric acid (common name "MCPB"). […] However, because of the high unit activity of compounds according to this invention against annual and perennial weeds associated with rice, it is within the purview of this invention to combine these herbicides with safeners or antidotes, to enhance the tolerance of both transplanted and direct-seeded rice thereto. Exemplary safeners contemplated as useful with the herbicides of this invention include the phenylglyoxylonitrile-2-oxime cyanomethyl ether described in U.S. Pat. No. 4,152,137, 2,4-disubstituted-5-thiazolecarboxylic acids and derivatives thereof as disclosed in the assignee's copending U.S. Ser. No. 906,183 and other known safeners for 2-haloacetanilides in rice.

Wheat = assay: Pre-emergent herbicidal test, Wheat; settings: Table II; note: ranges in brackets are in %
Source text: as §1, §2, §3

Hemp Sesbania = assay: Pre-emergent herbicidal test, Hemp Sesbania; settings: Table II; note: ranges in brackets are in %
Source text: as §1, §2, §3

CCCCOc1cccc(CC)c1N(C)C(=O)CCl [Example 1, N-methyl-2'-n-butoxy-6'-ethyl-2-chloroacetanilide]
Rating, Sorghum (Sorghum; 0.006 kg/h): 0 (0-24) | Rating, Sorghum (Sorghum; 0.01 kg/h): 0 (0-24) | Rating, Sorghum (Sorghum; 0.06 kg/h): 2 (50-74) | Rating, Sorghum (Sorghum; 0.28 kg/h): 3 (75-100) | Rating, Sorghum (Sorghum; 1.12 kg/h): 3 (75-100) | Rating, Sorghum (Sorghum; 5.6 kg/h): 3 (75-100) | Rating, Wild Buckwheat (Wild Buckwheat; 0.006 kg/h): 0 (0-24) | Rating, Wild Buckwheat (Wild Buckwheat; 0.01 kg/h): 1 (25-49) | Rating, Wild Buckwheat (Wild Buckwheat; 0.06 kg/h): 1 (25-49) | Rating, Wild Buckwheat (Wild Buckwheat; 0.28 kg/h): 1 (25-49) | Rating, Wild Buckwheat (Wild Buckwheat; 1.12 kg/h): 2 (50-74) | Rating, Wild Buckwheat (Wild Buckwheat; 5.6 kg/h): 3 (75-100) | Rating, Sugarbeet (Sugarbeet; 0.006 kg/h): 0 (0-24) | Rating, Sugarbeet (Sugarbeet; 0.01 kg/h): 0 (0-24) | Rating, Sugarbeet (Sugarbeet; 0.06 kg/h): 0 (0-24) | Rating, Sugarbeet (Sugarbeet; 0.28 kg/h): 1 (25-49) | Rating, Sugarbeet (Sugarbeet; 1.12 kg/h): 2 (50-74) | Rating, Sugarbeet (Sugarbeet; 5.6 kg/h): 3 (75-100) | Rating, Johnsongrass (Johnsongrass; 5.6 kg/h): 3 (75-100) | Rating, Johnsongrass (Johnsongrass; 11.2 kg/h): 3 (75-100) | Rating, Soybean (Soybean; 0.006 kg/h): 0 (0-24) | Rating, Soybean (Soybean; 0.01 kg/h): 0 (0-24) | Rating, Soybean (Soybean; 0.06 kg/h): 0 (0-24) | Rating, Soybean (Soybean; 0.28 kg/h): 0 (0-24) | Rating, Soybean (Soybean; 1.12 kg/h): 0 (0-24) | Rating, Soybean (Soybean; 5.6 kg/h): 1 (25-49) | Rating, Barnyardgrass (Barnyardgrass; Table I, 5.6 kg/h): 3 (75-100) | Rating, Barnyardgrass (Barnyardgrass; Table I, 11.2 kg/h): 3 (75-100) | Rating, Barnyardgrass (Barnyardgrass; Table II, 0.006 kg/h): 1 (25-49) | Rating, Barnyardgrass (Barnyardgrass; Table II, 0.01 kg/h): 2 (50-74) | Rating, Barnyardgrass (Barnyardgrass; Table II, 0.06 kg/h): 3 (75-100) | Rating, Barnyardgrass (Barnyardgrass; Table II, 0.28 kg/h): 3 (75-100) | Rating, Barnyardgrass (Barnyardgrass; Table II, 1.12 kg/h): 3 (75-100) | Rating, Barnyardgrass (Barnyardgrass; Table II, 5.6 kg/h): 3 (75-100) | Rating, Panicum Spp. (Panicum Spp.; 0.006 kg/h): 0 (0-24) | Rating, Panicum Spp. (Panicum Spp.; 0.01 kg/h): 1 (25-49) | Rating, Panicum Spp. (Panicum Spp.; 0.06 kg/h): 3 (75-100) | Rating, Panicum Spp. (Panicum Spp.; 0.28 kg/h): 3 (75-100) | Rating, Panicum Spp. (Panicum Spp.; 1.12 kg/h): 3 (75-100) | Rating, Panicum Spp. (Panicum Spp.; 5.6 kg/h): 3 (75-100) | Rating, Lambsquarters (Lambsquarters; Table I, 5.6 kg/h): 3 (75-100) | Rating, Lambsquarters (Lambsquarters; Table I, 11.2 kg/h): 3 (75-100) | Rating, Lambsquarters (Lambsquarters; Table II, 0.006 kg/h): 0 (0-24) | Rating, Lambsquarters (Lambsquarters; Table II, 0.01 kg/h): 0 (0-24) | Rating, Lambsquarters (Lambsquarters; Table II, 0.06 kg/h): 0 (0-24) | Rating, Lambsquarters (Lambsquarters; Table II, 0.28 kg/h): 2 (50-74) | Rating, Lambsquarters (Lambsquarters; Table II, 1.12 kg/h): 3 (75-100) | Rating, Lambsquarters (Lambsquarters; Table II, 5.6 kg/h): 3 (75-100) | Rating, Cocklebur (Cocklebur; 0.06 kg/h): 0 (0-24) | Rating, Cocklebur (Cocklebur; 5.6 kg/h): 0 (0-24) | Rating, Yellow Nutsedge (Yellow Nutsedge; 5.6 kg/h): 3 (75-100) | Rating, Yellow Nutsedge (Yellow Nutsedge; 11.2 kg/h): 3 (75-100) | Rating, Morningglory (Morningglory; Table I, 5.6 kg/h): 2 (50-74) | Rating, Morningglory (Morningglory; Table I, 11.2 kg/h): 1 (25-49) | Rating, Morningglory (Morningglory; Table II, 0.006 kg/h): 0 (0-24) | Rating, Morningglory (Morningglory; Table II, 0.06 kg/h): 0 (0-24) | Rating, Morningglory (Morningglory; Table II, 0.28 kg/h): 0 (0-24) | Rating, Morningglory (Morningglory; Table II, 1.12 kg/h): 2 (50-74) | Rating, Morningglory (Morningglory; Table II, 5.6 kg/h): 3 (75-100) | Rating, Smartweed (Smartweed; Table I, 5.6 kg/h): 2 (50-74) | Rating, Smartweed (Smartweed; Table I, 11.2 kg/h): 3 (75-100) | Rating, Smartweed (Smartweed; Table II, 0.006 kg/h): 0 (0-24) | Rating, Smartweed (Smartweed; Table II, 0.01 kg/h): 0 (0-24) | Rating, Smartweed (Smartweed; Table II, 0.06 kg/h): 0 (0-24) | Rating, Smartweed (Smartweed; Table II, 0.28 kg/h): 2 (50-74) | Rating, Smartweed (Smartweed; Table II, 1.12 kg/h): 3 (75-100) | Rating, Smartweed (Smartweed; Table II, 5.6 kg/h): 3 (75-100) | efficacy in direct-seeded rice (direct-seeded rice): less-efficacious | Rating, Wheat (Wheat; 0.006 kg/h): 0 (0-24) | Rating, Wheat (Wheat; 0.01 kg/h): 0 (0-24) | Rating, Wheat (Wheat; 0.06 kg/h): 1 (25-49) | Rating, Wheat (Wheat; 0.28 kg/h): 2 (50-74) | Rating, Wheat (Wheat; 1.12 kg/h): 2 (50-74) | Rating, Wheat (Wheat; 5.6 kg/h): 3 (75-100) | Rating, Hemp Sesbania (Hemp Sesbania; 0.006 kg/h): 2 (50-74) | Rating, Hemp Sesbania (Hemp Sesbania; 0.01 kg/h): 2 (50-74) | Rating, Hemp Sesbania (Hemp Sesbania; 0.06 kg/h): 3 (75-100) | Rating, Hemp Sesbania (Hemp Sesbania; 0.28 kg/h): 3 (75-100) | Rating, Hemp Sesbania (Hemp Sesbania; 1.12 kg/h): 3 (75-100) | Rating, Hemp Sesbania (Hemp Sesbania; 5.6 kg/h): 3 (75-100)

From patent US4345938A, “Herbicidal 2-haloacetanilides” (Monsanto Company, priority 1980, dated 1982)
